Test results published in patent US11814371B2, “Heterocyclic compound” (MEDSHINE DISCOVERY INC., priority 2020, dated 2023).
Read-outs that look alike come from different tables or passages of the source.

What was measured:
[1] = biological target: T1, recombinant human plasma kallikrein (Human PKal) (Homo sapiens, UniProt P03952); assay: Inhibitory effect of test compounds on plasma kallikrein (PKal), fluorogenic substrate Z-FR-AMC; type: biochemical; conditions: 10 µM Z-FR-AMC, 10 min pre-incubation
T1 construct: Gly20-Ala638 derived from NS0- with a 60-His appendage at the C-terminus; His tag ('60-His' [sic]) (C); purchased R&D Systems 2497-SE; host or cells: mouse myeloma cell line NS0
T1 sequence (P03952 20-638): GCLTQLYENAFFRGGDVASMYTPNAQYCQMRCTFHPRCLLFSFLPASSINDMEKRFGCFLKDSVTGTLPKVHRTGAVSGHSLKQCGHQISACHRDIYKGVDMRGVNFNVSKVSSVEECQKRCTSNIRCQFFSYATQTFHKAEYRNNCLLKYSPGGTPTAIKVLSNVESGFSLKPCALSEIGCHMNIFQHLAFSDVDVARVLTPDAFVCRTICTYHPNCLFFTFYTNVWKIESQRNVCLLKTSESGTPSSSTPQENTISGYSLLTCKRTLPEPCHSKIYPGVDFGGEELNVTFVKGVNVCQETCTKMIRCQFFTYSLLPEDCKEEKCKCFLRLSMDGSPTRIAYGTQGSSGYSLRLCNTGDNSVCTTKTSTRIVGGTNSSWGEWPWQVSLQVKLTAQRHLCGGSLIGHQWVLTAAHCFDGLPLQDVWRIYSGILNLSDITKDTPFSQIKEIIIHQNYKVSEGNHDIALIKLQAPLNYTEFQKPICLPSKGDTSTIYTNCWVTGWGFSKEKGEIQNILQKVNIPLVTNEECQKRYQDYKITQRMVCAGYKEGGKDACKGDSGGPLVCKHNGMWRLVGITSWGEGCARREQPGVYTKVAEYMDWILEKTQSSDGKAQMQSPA
Method: 1. PKal reaction buffer: 25 mM Tris-HCl (trometamol-HCl), pH 8.0, 100 mM NaCl, […], 0.01 % Brij35 (polyoxyethylene lauryl ether), and 1 % DMSO (final concentration).
2. Enzyme: PKal (R&D Systems Cat# 2497-SE), recombinant human plasma kallikrein expressed in a mouse myeloma cell line, Gly20-Ala638 derived from NS0- with a 60-His appendage at the C-terminus, MW=70 kDa. Activation of the enzyme: (1) rhPKal was diluted to 200 µg/mL activation buffer (100 mM Tris, 10 mM CaCl2, 150 mM NaCl, pH 7.5 (TCN)); (2) thermolysin was diluted to 20 µg/mL activation buffer; (3) rhPKal (200 µg/mL) and thermolysin (20 µg/mL) were mixed in equal volumes; (4) the mixture was incubated at 37° C. for 30 min; (5) then the reactions was stopped with 50 µM EDTA (ethylenediaminetetraacetic acid).
3. Substrate (Enzo Cat# P-139): 10 µM Z-FR-AMC (AMC: 7-amino-4-methylcoumarin).
4. Detection: EnVision (PE), Ex/Em 355/460 nm.
5. Reaction process: (1) The specified enzymes and substrates were prepared in freshly prepared activation buffer; (2) the enzyme solution was injected into the reaction hole; (3) the DMSO solution of the test compound was injected into the reaction mixture, and controlled within the nanoliter range using acoustic technology (Echo 550, LabCyte Inc. Sunnyvale, CA); (4) after 10 min of pre-incubation, the substrate solution was injected into the reaction hole to start the reaction; (5) the activity of the enzyme could be indicated by the increase of the fluorescence signal of the fluorescent labeled peptide substrate, which was monitored every 5 min and lasted for 120 min at room temperature; (6) data analysis: the slope* (fluorescence signal/time) of the straight line was measured, then the slope could be calculated by excel and the curve could be fitted by Prism software.

[2] = Pharmacokinetic test in rats after intravenous and intragastric administration (plasma, LC-MS/MS); type: in vivo; conditions: male, SD, rat; for bioavailability: read-out: Bioavailability F; for AUC(0-inf): read-out: Curve area (o-inf) AUC0-inf; for AUC(0-t): read-out: Curve area (o-t) AUC0-last; for half-life: read-out: Half-life T½ (converted); for Tmax: read-out: Peak time Tmax; for Cmax: read-out: Plasma drug concentration Cmax; for Vd: read-out: Apparent volume of distribution Vdss; for clearance: read-out: Clearance rate Cl
Method: Male SD rats were used as test animals, and LC-MS/MS method was used to determine the drug concentrations in plasma of rats at different times after intravenous and intragastric administration of test compounds. The pharmacokinetic behaviors of the compounds in rats were studied and the pharmacokinetic characteristics were evaluated.
2.2 Test animals: 28 healthy adult male SD rats were divided into 14 groups with 2 rats in each group. Animals were purchased from Beijing Vital River Laboratory Animal Technology Co., Ltd.
(§1) An appropriate amount of sample was weighed, and an appropriate amount of DMSO, polyoxyethylene castor oil and sterile water for injection were added in sequence according to the volume ratio of 10:10:80, then the mixture was stirred and sonicated to reach a clear state of 0.5 mg/mL for intravenous administration.
as §1, with “clear or suspension” for “clear”, “0.4” for “0.5”, “intragastric” for “intravenous”
as §1, with “3” for “0.5”
2.4 Administration: 28 male SD rats were divided into 14 groups, after fasting for one night, the intravenous administration group was administered with an administration volume of 2 mL/kg and a dose of 1 mg/kg; the intragastric administration group 1 was administered with an administration volume of 5 mL/kg and a dose of 2 mg/kg. The intragastric administration group 2 was administered with an administration volume of 10 mL/kg and a dose of 30 mg/kg.
After the compound was administered intravenously to male SD rats, 40 µL of blood was collected at 0.0833, 0.25, 0.5, 1, 2, 4, 8 and 24 hours, respectively, and placed in tubes containing 2 µL of EDTA-K2. After the compound was administered in the intragastric administration group, 40 µL of blood was collected at 0.25, 0.5, 1, 2, 4, 6, 10 and 24 hours, respectively, and placed in tubes containing 2 µL of EDTA-K2. The tubes were centrifuged at 4000 rpm for 15 minutes to separate the plasma, and stored at -60° C. Animals were allowed to eat 2 hours after administration.
LC-MS/MS method was used to determine the content of the test compounds in the plasma of rats after intravenous and intragastric administration. The linear range of the method was 2.00 - 6000 nmol/L; plasma samples were treated with acetonitrile to precipitate protein, and then analyzed.

[3] = po, intragastric administration (group 1), nominal 2 mg/kg (actual dose in c2)
[4] = intravenous administration, nominal 1 mg/kg (actual dose in c2)
[5] = po, intragastric administration (group 2), nominal 30 mg/kg (actual dose in c2)

| IC50 [1] | bioavailability [2, 3] | AUC(0-inf) [2, 3] | AUC(0-t) [2, 3] | half-life [2, 3] | Tmax [2, 3] | Cmax [2, 3] | Vd [2, 4] | clearance [2, 4] | AUC(0-inf) [2, 4] | AUC(0-t) [2, 4] | half-life [2, 4] | bioavailability [2, 5] | AUC(0-inf) [2, 5] | AUC(0-t) [2, 5] | half-life [2, 5] | Tmax [2, 5] | Cmax [2, 5] | Compound |
| --- | --- | --- | --- | --- | --- | --- | --- | --- | --- | --- | --- | --- | --- | --- | --- | --- | --- | --- |
| 0.139 nM | 15.3% | 1.34 µM·h | 1.33 µM·h | 93.6 min | 30 min | 1140 nM | 0.202 L/kg | 7.09 mL/min/kg | 4.38 µM·h | 4.35 µM·h | 37.4 min | – | – | – | – | – | – | COc1ccc(F)c(CNC(=O)c2cn(Cc3ccc(Cn4cc(F)ccc4=O)cc3)nc2C2COC2)c1F [Compound 1] |
| 0.465 nM | 11.2% | 0.591 µM·h | 0.584 µM·h | 94.2 min | 15 min | 680 nM | 0.188 L/kg | 12.2 mL/min/kg | 2.62 µM·h | 2.62 µM·h | 23.5 min | 54% | 42.5 µM·h | 42.4 µM·h | 115 min | 15 min | 18600 nM | COc1ccc(F)c(CNC(=O)c2cn(Cc3ccc(Cn4cc(F)ccc4=O)c(F)c3)nc2C2COC2)c1F [Compound 8] |
